Results from patent US9856279B2 (AGIOS PHARMACEUTICALS, INC, priority 2011, dated 2018).

Legend:
U87MG cells = experiment: Cellular assay for IDH1m inhibitors: inhibition of 2-HG production (LC-MS, 48 hours) in U87MG cells; assay type: cell-based; conditions: Homo sapiens, U-87 MG, inhibition of 2-HG production, U87R132H cells; read-out: U87R132H IC50
Procedure, shortened: (§1)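 Inhibition of 2-HG production was assessed in cells seeded at 5000/well and exposed to compound for 48 h (final DMSO 0.2%). Supernatant 2-HG was analysed by LC-MS.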

HT1080 cells = experiment: Cellular assay for IDH1m inhibitors: inhibition of 2-HG production (LC-MS, 48 hours) in HT1080 cells; assay type: cell-based; conditions: Homo sapiens, HT-1080; inhibition of 2-HG production, HT1080 cells; read-out: HT1080 IC50
Procedure, shortened: as §1

IDH1 R132H = IDH1 R132H (Homo sapiens, UniProt O75874, R132H); experiment: Assay for IDH1 R132H inhibitors (NADPH/aKG, resazurin detection); assay type: biochemical; conditions: enzyme assay of Example 12; read-out: IDH1R132H IC50
IDH1 R132H, sequence (O75874 whole entry R132H): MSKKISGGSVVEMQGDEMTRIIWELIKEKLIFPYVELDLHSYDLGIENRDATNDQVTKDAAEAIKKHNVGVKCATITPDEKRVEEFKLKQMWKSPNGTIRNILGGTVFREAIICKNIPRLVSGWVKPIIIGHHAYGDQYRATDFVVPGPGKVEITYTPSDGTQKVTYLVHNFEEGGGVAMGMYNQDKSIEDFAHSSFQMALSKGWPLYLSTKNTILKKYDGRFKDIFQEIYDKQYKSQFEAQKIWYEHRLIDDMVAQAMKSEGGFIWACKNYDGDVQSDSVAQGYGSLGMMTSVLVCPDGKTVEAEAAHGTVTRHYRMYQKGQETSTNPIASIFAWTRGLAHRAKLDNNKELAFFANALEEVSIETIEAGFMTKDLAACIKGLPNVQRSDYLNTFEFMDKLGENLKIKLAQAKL
Procedure, shortened: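 Compound added to substrate mix (8 uM NADPH, 2 mM aKG), then enzyme mix (0.2 μg/ml IDH1 R132H); 50 min RT in 20 mM Tris pH 7.5, 150 mM NaCl, 10 mM MgCl2, 0.03% BSA. Resazurin detection mix (30 μM) 5 min RT; resorufin fluorescence Ex544/Em590.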

Row | SMILES | IC50 (U87MG cells) | IC50 (HT1080 cells) | IC50 (IDH1 R132H)
1 | COCCC(=O)N1CCN(c2nc(C3CC3)c(-c3cnc4[nH]ccc4c3)cc2C#N)C[C@H]1C [Compound 374, (R)-6-cyclopropyl-2-[4-(3-methoxy-propionyl)-3-methyl-piperazin-1-yl]-5-(1H-pyrrolo[2,3-b]pyridin-5-yl)-nicotinonitrile] | 500 to 1000 nM | 1000 to 10000 nM | < 500 nM
2 | C=Cc1cc(-c2cc(C#N)c(N3CCN(C(=O)CCO)[C@H](C4CC4)C3)nc2C2CC2)ncn1 [Compound 663, (R)-6-cyclopropyl-2-(3-cyclopropyl-4-(3-hydroxypropanoyl)piperazin-1-yl)-5-(6-vinylpyrimidin-4-yl)nicotinonitrile] | < 500 nM | < 500 nM | < 500 nM
3 | COCCC(=O)N1CCN(c2nc(C3CC3)c(-c3ccc4c(c3)OCO4)c(C)c2C#N)C[C@H]1C [Compound 269, (R)-5-(benzo[d][1,3]dioxol-5-yl)-6-cyclopropyl-2-(4-(3-methoxypropanoyl)-3-methylpiperazin-1-yl)-4-methylnicotinonitrile] | 1000 to 10000 nM | 1000 to 10000 nM | < 500 nM
4 | COCCC(=O)N1CCN(c2nc(C3CC3)c(-c3ccc(NS(C)(=O)=O)cc3)c(C)c2C#N)C[C@H]1C [Compound 380, (R)—N-(4-{5-cyano-2-cyclopropyl-6-[4-(3-methoxy-propionyl)-3-methyl-piperazin-1-yl]-4-methyl-pyridin-3-yl}-phenyl)-methane sulfonamide] | 500 to 1000 nM | 500 to 1000 nM | < 500 nM
5 | C=Cc1cc(-c2c(C3CC3)nc(N3CCN(C(=O)CC4CCCO4)[C@H](C4CC4)C3)c(C#N)c2C)ccn1 (stereo partly drawn) [Compound 805, 2-cyclopropyl-6-((3R)-3-cyclopropyl-4-(2-(tetrahydrofuran-2-yl)acetyl)piperazin-1-yl)-4-methyl-2′-vinyl-[3,4′-bipyridine]-5-carbonitrile] | < 500 nM | < 500 nM | < 500 nM
6 | COCCC(=O)N1CCN(c2nc(C3CC3)c(-c3cc4ccccc4nc3Cl)cc2C#N)C[C@H]1C [Compound 360, (R)-5-(2-chloro-quinolin-3-yl)-6-cyclopropyl-2-[4-(3-methoxy-propionyl)-3-methyl-piperazin-1-yl]-nicotinonitrile] | 1000 to 10000 nM | 1000 to 10000 nM | < 500 nM
7 | COCCC(=O)N1CCN(c2nc(C3CC3)c(-c3cccc(N4CC=CC4=O)c3)cc2C#N)C[C@H]1C [Compound 459, (R)-6-cyclopropyl-2-(4-(3-methoxypropanoyl)-3-methylpiperazin-1-yl)-5-(3-(2-oxo-2,5-dihydro-1H-pyrrol-1-yl)phenyl)nicotinonitrile] | < 500 nM | < 500 nM | < 500 nM
8 | C=Cc1ccnc(Nc2cc(C#N)c(N3CCN(C(=O)CCOC)[C@H](C)C3)nc2C2CC2)c1 [Compound 647, (R)-6-cyclopropyl-2-(4-(3-methoxypropanoyl)-3-methylpiperazin-1-yl)-5-((4-vinylpyridin-2-yl)amino)nicotinonitrile] | < 500 nM | < 500 nM | < 500 nM
9 | COCCC(=O)N1CCN(c2nc(C3CC3)c(-c3cccc4ncccc34)cc2C#N)C[C@H]1C [Compound 288, (R)-6-cyclopropyl-2-(4-(3-methoxypropanoyl)-3-methylpiperazin-1-yl)-5-(quinolin-5-yl)nicotinonitrile] | < 500 nM | < 500 nM | < 500 nM
10 | C=Cc1cc(-c2c(C3CC3)nc(N3CCN(C(=O)CC4CCCC4)[C@H](C4CC4)C3)c(C#N)c2C)ccn1 [Compound 782, (R)-6-(4-(2-cyclopentylacetyl)-3-cyclopropylpiperazin-1-yl)-2-cyclopropyl-4-methyl-2′-vinyl-3,4′-bipyridine-5-carbonitrile] | < 500 nM | < 500 nM | < 500 nM
11 | COCCC(=O)N1CCN(c2nc(C3CC3)c(-c3ccccc3C#N)cc2C#N)C[C@H]1C(C)C [Compound 274, (R)-5-(2-cyanophenyl)-6-cyclopropyl-2-(3-isopropyl-4-(3-methoxypropanoyl)piperazin-1-yl)nicotinonitrile] | 1000 to 10000 nM | 1000 to 10000 nM | 500 to 1000 nM
12 | C=Cc1ncc2c(-c3cc(C#N)c(N4CCN(C(=O)CCOC)[C@H](C5CC5)C4)nc3C3CC3)cccc2n1 [Compound 635, (R)-6-cyclopropyl-2-(3-cyclopropyl-4-(3-methoxypropanoyl)piperazin-1-yl)-5-(2-vinylquinazolin-5-yl)nicotinonitrile] | < 500 nM | < 500 nM | < 500 nM
13 | C=Cc1cc(-c2c(C3CC3)nc(N3CCN(C(=O)CCCOC)[C@H](C(C)C)C3)c(C#N)c2C)ccn1 [Compound 788, (R)-2-cyclopropyl-6-(3-isopropyl-4-(4-methoxybutanoyl)piperazin-1-yl)-4-methyl-2′-vinyl-3,4′-bipyridine-5-carbonitrile] | < 500 nM | < 500 nM | < 500 nM
14 | C=Cc1cc(-c2cc(C#N)c(N3CCN(C(=O)CCO)[C@H](C)C3)nc2C2CC2)ccn1 [Compound 500] | < 500 nM | < 500 nM | < 500 nM
15 | C=Cc1cc(-c2cc(C#N)c(N3CCN(C(=O)C4CC4)[C@H](C4CC4)C3)nc2C2CC2)ccn1 [Compound 485, (R)-6-(4-(cyclopropanecarbonyl)-3-cyclopropylpiperazin-1-yl)-2-cyclopropyl-2′-vinyl-3,4′-bipyridine-5-carbonitrile] | < 500 nM | < 500 nM | < 500 nM
16 | C=Cc1cc(-c2cc(C#N)c(N3CCN(C(=O)C[C@H](C)O)[C@H](C4CC4)C3)nc2C2CC2)ccn1 [Compound 595, 2-cyclopropyl-6-((R)-3-cyclopropyl-4-((S)-3-hydroxybutanoyl)piperazin-1-yl)-2′-vinyl-3,4′-bipyridine-5-carbonitrile] | < 500 nM | < 500 nM | < 500 nM

Continued, values first:

Row | IC50 (U87MG cells) | IC50 (HT1080 cells) | IC50 (IDH1 R132H) | SMILES
17 | < 500 nM | < 500 nM | < 500 nM | C=Cc1cc(-c2cc(C#N)c(N3CCN(C(=O)CCO)[C@H](C(C)C)C3)nc2C2CC2)c2ccncc2n1 [Compound 681, (R)-6-cyclopropyl-2-(4-(3-hydroxypropanoyl)-3-isopropylpiperazin-1-yl)-5-(2-vinyl-1,7-naphthyridin-4-yl)nicotinonitrile]
18 | < 500 nM | < 500 nM | < 500 nM | CCOC1CC1C(=O)N1CCN(c2nc(C3CC3)c(-c3cccc4cnccc34)cc2C#N)C[C@H]1C1CC1 (stereo partly drawn) [Compound 481]
19 | < 500 nM | < 500 nM | < 500 nM | C=Cc1cc(-c2cc(C#N)c(N3CCN(C(=O)CCOC)[C@H](C)C3)nc2C2CC2)ncn1 [Compound 597, (R)-6-cyclopropyl-2-(4-(3-methoxypropanoyl)-3-methylpiperazin-1-yl)-5-(6-vinylpyrimidin-4-yl)nicotinonitrile]
20 | < 500 nM | < 500 nM | < 500 nM | C=Cc1cc(-c2cc(C#N)c(N3CCN(C(=O)CCO)[C@H](C(C)C)C3)nc2C2CC2)c2cccnc2n1 [Compound 629, (R)-6-cyclopropyl-2-(4-(3-hydroxypropanoyl)-3-isopropylpiperazin-1-yl)-5-(2-vinyl-1,8-naphthyridin-4-yl)nicotinonitrile]
21 | < 500 nM | < 500 nM | < 500 nM | COCCC(=O)N1CCN(c2nc(C3CC3)c(-c3ccc(C#N)cc3)c(C)c2C#N)C[C@H]1C [Compound 347, (R)-5-(4-cyano-phenyl)-6-cyclopropyl-2-[4-(3-methoxy-propionyl)-3-methyl-piperazin-1-yl]-4-methyl-nicotinonitrile]
22 | < 500 nM | < 500 nM | < 500 nM | C=Cc1ccc2c(-c3cc(C#N)c(N4CCN(C(=O)CC(F)(F)F)[C@H](C5CC5)C4)nc3C3CC3)cccc2n1 [Compound 551, (R)-6-cyclopropyl-2-(3-cyclopropyl-4-(3,3,3-trifluoropropanoyl)piperazin-1-yl)-5-(2-vinylquinolin-5-yl)nicotinonitrile]
23 | < 500 nM | < 500 nM | < 500 nM | C=Cc1cnnc(-c2c(C3CC3)nc(N3CCN(C(=O)C[C@H]4CCO4)[C@H](C4CC4)C3)c(C#N)c2C)c1 [Compound 768, 6-cyclopropyl-2-((R)-3-cyclopropyl-4-(2-((R)-oxetan-2-yl)acetyl)piperazin-1-yl)-4-methyl-5-(5-vinylpyridazin-3-yl)nicotinonitrile]
24 | < 500 nM | < 500 nM | < 500 nM | C=Cc1cc(-c2cc(C#N)c(N3CCN(C(C)=O)[C@H](C4CC4)C3)nc2C2CC2)ccn1 [Compound 562, (R)-6-(4-acetyl-3-cyclopropylpiperazin-1-yl)-2-cyclopropyl-2′-vinyl-3,4′-bipyridine-5-carbonitrile]
25 | < 500 nM | < 500 nM | < 500 nM | C=Cc1cc(Nc2cc(C#N)c(N3CCN(C(=O)CCO)[C@H](C4CC4)C3)nc2C2CC2)c2ccncc2n1 [Compound 722, (R)-6-cyclopropyl-2-(3-cyclopropyl-4-(3-hydroxypropanoyl)piperazin-1-yl)-5-((2-vinyl-1,7-naphthyridin-4-yl)amino)nicotinonitrile]
26 | < 500 nM | < 500 nM | < 500 nM | C=Cc1ncc2c(-c3cc(C#N)c(N4CCN(C(=O)CCOC)[C@H](C(C)C)C4)nc3C3CC3)cccc2n1 [Compound 634, (R)-6-cyclopropyl-2-(3-isopropyl-4-(3-methoxypropanoyl)piperazin-1-yl)-5-(2-vinylquinazolin-5-yl)nicotinonitrile]
